A short description of series [1]: Cytotoxicity against MDCK cells assessed as cell death after 2 days by MTT assay. In kind it is toxicity, cell-based, Canis lupus familiaris. The conditions noted are these: dog. Background: Tetrazolium assays rely on reduction of a dye to a coloured formazan, in cell work by metabolically active cells.
Series [2] can be described thus: Selectivity index, ratio of CC50 for MDCK cells to IC50 for Influenza A virus H5 subtype (A/Thailand/Kan353/2004(H5N1)) pseudovirus infected in MDCK cells co-infected with HA/HIV. In kind it is functional.
Another series in a line: cells. Conditions: Influenza A virus, MDCK.
Series [3] can be described thus: (§1) Binding affinity to Influenza A virus A/Vietnam/1194/2004(H5N1) Hemagglutinin by surface plasmon resonance analysis. For orientation: SPR reads the build-up and loss of mass on a sensor chip optically.
Series [4] has as its system Influenza A virus (A/Vietnam/1194/2004(H5N1)). The series is described as §1.
Series [5] can be described thus: (§2) Binding affinity to influenza A virus A/Vietnam/1194/2004(H5N1) Hemagglutinin 2 subunit by surface plasmon resonance analysis.
The subject of series [6] is Influenza A virus (A/Vietnam/1194/2004(H5N1)). The series is described as §2.

Experimental findings from ChEMBL document CHEMBL3856183, “Structure-activity relationships of 3-O-β-chacotriosyl oleanane-type triterpenoids as potential H5N1 entry inhibitors” (Eur J Med Chem, 2016) are described below.

A value given as a limit tells only on which side of the number the result lay.

By CC50 is commonly meant the concentration that lowers cell viability or growth by half. For orientation: IC50 means the concentration that gives 50% inhibition. Low readings indicate greater potency in that assay, high ones weaker potency in that assay. Regarding `C[C@@H]1O[C@@H](O[C@H]2[C@H](O[C@H]3CC[C@]4(C)[C@H]5CC=C6[C@@H]7CC(C)(C)CC[C@]7(C(=O)OCc7ccccc7)CC[C@@]6(C)[C@]5(C)CC[C@H]4C3(C)C)O[C@H](CO)[C@@H](O[C@@H]3O[C@@H](C)[C@H](O)[C@@H](O)[C@H]3O)[C@@H]2O)[C@H](O)[C@H](O)[C@H]1O`, the CC50 at 48 h in series [1] was 75.4 µM. The “Ratio CC50/IC50” value in series [2] amounted to 13.4. Besides, the IC50 in “cells” was determined as 5.62 µM.
The corresponding values for `CCOC(=O)[C@]12CCC(C)(C)C[C@H]1C1=CC[C@@H]3[C@@]4(C)CC[C@H](O[C@@H]5O[C@H](CO)[C@@H](O[C@@H]6O[C@@H](C)[C@H](O)[C@@H](O)[C@H]6O)[C@H](O)[C@H]5O[C@@H]5O[C@@H](C)[C@H](O)[C@@H](O)[C@H]5O)C(C)(C)[C@@H]4CC[C@@]3(C)[C@]1(C)CC2` are 37.4 µM, 7.2 and 5.2 µM.
`COC(=O)[C@]12CCC(C)(C)C[C@H]1C1=CC(=O)[C@@H]3[C@@]4(C)CC[C@H](O[C@@H]5O[C@H](CO)[C@@H](O[C@@H]6O[C@@H](C)[C@H](O)[C@@H](O)[C@H]6O)[C@H](O)[C@H]5O[C@@H]5O[C@@H](C)[C@H](O)[C@@H](O)[C@H]5O)C(C)(C)[C@@H]4CC[C@@]3(C)[C@]1(C)CC2`: the CC50 at 48 h in series [1] came out at 17.9 µM. Besides, in series [2], the “Ratio CC50/IC50” value was found to be 3.1. Moreover, the IC50 in “cells” worked out at 5.8 µM.
Take `CCN(CC)C(=O)[C@]12CCC(C)(C)C[C@H]1C1=CC[C@@H]3[C@@]4(C)CC[C@H](O[C@@H]5O[C@H](CO)[C@@H](O[C@@H]6O[C@@H](C)[C@H](O)[C@@H](O)[C@H]6O)[C@H](O)[C@H]5O[C@@H]5O[C@@H](C)[C@H](O)[C@@H](O)[C@H]5O)C(C)(C)[C@@H]4CC[C@@]3(C)[C@]1(C)CC2`: the CC50 at 48 h in series [1] was 69 µM. Moreover, the “Ratio CC50/IC50” value in series [2] amounted to 27.8. Moreover, the half-maximal inhibitory concentration (IC50) in “cells” is 2.48 µM.
For `O=C(NCCN1CCCCC1)c1cc(F)cc(C(F)(F)F)c1`, the “Ratio CC50/IC50” value in series [2] was 332.3.
What is called Kd is the equilibrium constant for the complex coming apart. Low values mean higher affinity, high ones lower affinity. As to `C[C@@H]1O[C@@H](O[C@H]2[C@H](O[C@H]3CC[C@]4(C)[C@H]5CC=C6[C@@H]7CC(C)(C)CC[C@]7(C(=O)N(C)C)CC[C@@]6(C)[C@]5(C)CC[C@H]4C3(C)C)O[C@H](CO)[C@@H](O[C@@H]3O[C@@H](C)[C@H](O)[C@@H](O)[C@H]3O)[C@@H]2O)[C@H](O)[C@H](O)[C@H]1O`, the CC50 at 48 h in series [1] turned out to be 70 µM. The “Ratio CC50/IC50” value in series [2] came out at 29.7. The figures for the Kd in series [3] and in series [5] were 0.00446 µM and 0.0112 µM, respectively. Also, the Activity entry in series [4] and in series [6] was “Dose-dependent effect” each time. In the series “cells”, this compound registered an IC50 of 2.36 µM.
For the compound `C[C@@H]1O[C@@H](O[C@H]2[C@H](O[C@H]3CC[C@]4(C)[C@H]5CC=C6[C@@H]7CC(C)(C)CC[C@]7(C(=O)OC7CCCC7)CC[C@@]6(C)[C@]5(C)CC[C@H]4C3(C)C)O[C@H](CO)[C@@H](O[C@@H]3O[C@@H](C)[C@H](O)[C@@H](O)[C@H]3O)[C@@H]2O)[C@H](O)[C@H](O)[C@H]1O`, the 50% cytotoxic concentration (CC50) at 48 h in series [1] was determined as 58.2 µM. In addition, the “Ratio CC50/IC50” value in series [2] is 12.1. The same compound came in with a 50% inhibitory concentration (IC50) in “cells” of 4.8 µM.
Take `COC(=O)[C@@]1(C)CC[C@]2(C)CC[C@]3(C)C(=CC(=O)[C@@H]4[C@@]5(C)CC[C@H](O[C@@H]6O[C@H](CO)[C@@H](O[C@@H]7O[C@@H](C)[C@H](O)[C@@H](O)[C@H]7O)[C@H](O)[C@H]6O[C@@H]6O[C@@H](C)[C@H](O)[C@@H](O)[C@H]6O)C(C)(C)[C@@H]5CC[C@]43C)[C@@H]2C1`: the CC50 at 48 h in series [1] amounted to 33.8 µM. For the same compound, the “Ratio CC50/IC50” value in series [2] is given as 8.3. Also, in “cells”, the IC50 worked out at 4.1 µM.
Consider `C[C@@H]1O[C@@H](O[C@H]2[C@H](O[C@H]3CC[C@]4(C)[C@H]5CC=C6[C@@H]7CC(C)(C)CC[C@]7(C(=O)O)CC[C@@]6(C)[C@]5(C)CC[C@H]4C3(C)C)O[C@H](CO)[C@@H](O[C@@H]3O[C@@H](C)[C@H](O)[C@@H](O)[C@H]3O)[C@@H]2O)[C@H](O)[C@H](O)[C@H]1O`, for which the CC50 at 48 h in series [1] is 18.7 µM. Also, in series [2], the “Ratio CC50/IC50” value is reported as 2. Also, the half-inhibitory concentration (IC50) in “cells” amounted to 9.39 µM.
For `COC(=O)[C@]12CCC(C)(C)C[C@H]1C1=CC[C@@H]3[C@@]4(C)CC[C@@H](O[C@@H]5O[C@H](CO)[C@@H](O[C@@H]6O[C@@H](C)[C@H](O)[C@@H](O)[C@H]6O)[C@H](O)[C@H]5O[C@@H]5O[C@@H](C)[C@H](O)[C@@H](O)[C@H]5O)C(C)(C)[C@@H]4CC[C@@]3(C)[C@]1(C)CC2` the same measures were greater than 200 µM, greater than 38 and 5.26 µM.
Consider `COC(=O)[C@]12CCC(C)(C)C[C@H]1C1=CC[C@@H]3[C@@]4(C)CC[C@H](O[C@@H]5O[C@H](CO)[C@@H](O[C@@H]6O[C@@H](C)[C@H](O)[C@@H](O)[C@H]6O)[C@H](O)[C@H]5O[C@@H]5O[C@@H](C)[C@H](O)[C@@H](O)[C@H]5O)C(C)(C)[C@@H]4CC[C@@]3(C)[C@]1(C)CC2`, for which, in series [2], the “Ratio CC50/IC50” value came out at 3.6. In “cells”, this compound came in with an IC50 of 4.74 µM.
For the compound `CCCCCOC(=O)[C@]12CCC(C)(C)C[C@H]1C1=CC[C@@H]3[C@@]4(C)CC[C@H](O[C@@H]5O[C@H](CO)[C@@H](O[C@@H]6O[C@@H](C)[C@H](O)[C@@H](O)[C@H]6O)[C@H](O)[C@H]5O[C@@H]5O[C@@H](C)[C@H](O)[C@@H](O)[C@H]5O)C(C)(C)[C@@H]4CC[C@@]3(C)[C@]1(C)CC2`, the CC50 at 48 h in series [1] was 45.2 µM. In series [2], the “Ratio CC50/IC50” value was found to be 6.9. In addition, the concentration for half-maximal inhibition (IC50) in the series “cells” was determined as 6.52 µM.
The corresponding values for `C[C@@H]1O[C@@H](O[C@H]2[C@H](O[C@H]3CC[C@]4(C)[C@H]5CC=C6[C@@H]7CC(C)(C)CC[C@]7(C=O)CC[C@@]6(C)[C@]5(C)CC[C@H]4C3(C)C)O[C@H](CO)[C@@H](O[C@@H]3O[C@@H](C)[C@H](O)[C@@H](O)[C@H]3O)[C@@H]2O)[C@H](O)[C@H](O)[C@H]1O` are 21.1 µM, 2.5 and 8.58 µM.
For `C[C@@H]1CC[C@@]2(OC1)O[C@H]1C[C@H]3[C@@H]4C[C@H](O)[C@H]5C[C@@H](O[C@@H]6O[C@H](CO)[C@@H](O[C@@H]7O[C@@H](C)[C@H](O)[C@@H](O)[C@H]7O)[C@H](O)[C@H]6O[C@@H]6O[C@@H](C)[C@H](O)[C@@H](O)[C@H]6O)CC[C@]5(C)[C@H]4CC[C@]3(C)[C@H]1[C@@H]2C` the same measures were 18.3 µM, 2.3 and 7.92 µM.
The corresponding values for `CC1(C)CC[C@]2(C(=O)O)CC[C@]3(C)C(=CC[C@@H]4[C@@]5(C)CC[C@H](O)C(C)(C)[C@@H]5CC[C@]43C)[C@@H]2C1` [OLEANOLIC_ACID] are 23.1 µM, less than 1 and greater than 50 µM.
In the case of `COC[C@]12CCC(C)(C)C[C@H]1C1=CC[C@@H]3[C@@]4(C)CC[C@H](O[C@@H]5O[C@H](CO)[C@@H](O[C@@H]6O[C@@H](C)[C@H](O)[C@@H](O)[C@H]6O)[C@H](O)[C@H]5O[C@@H]5O[C@@H](C)[C@H](O)[C@@H](O)[C@H]5O)C(C)(C)[C@@H]4CC[C@@]3(C)[C@]1(C)CC2`, the CC50 at 48 h in series [1] was 16.8 µM. In addition, the “Ratio CC50/IC50” value in series [2] is given as less than 1. The compound also returned an IC50 in “cells” greater than 20 µM.
